In US20220380317A1, “COMPOUNDS HAVING ANTIMALARIAL ACTIVITY” (NANYANG TECHNOLOGICAL UNIVERSITY, priority 2019, published 2022):
Read-outs that look alike come from different tables or passages of the source.

Tests used:
[1] = system: P. falciparum; experiment: in vitro P. falciparum growth inhibition / dose response assay (Hoechst 33342 FACS read out); format: cell-based, Plasmodium falciparum; conditions: for IC50: in vitro, FIG. 7B, read-out: affinity (IC50 values, in vitro anti-parasitic activity)
Procedure: For the in vitro P. falciparum culture, P. falciparum 3D7, Dd2, K1, T994, W2, and W2mef cell lines were obtained from Malaria Research and Reference Reagent Resource Center (MR4), BEI Resources. Artemisinin-resistant and -sensitive parasite field isolates from Ratanakiri, Cambodia were obtained by request from the Tracking Resistance to Artemisinin Collaboration (TRAC). In vitro parasite culture was performed as described by Maier and Rug (Methods Mol Bio 2013; 923:3-15). Briefly, cultures were maintained with RPMI medium supplemented with Albumax II; […] RPMI-1640 (Gibco, Life Technologies), 2.5 g/L Albumax II (Gibco, Life Technologies), 2.3 g/L Sodium Bicarbonate (Sigma-Aldrich), 50 mg/L Hypoxanthine (Sigma-Aldrich), 10 mg/L Gentamicin Sulphate (Gibco, Life Technologies), in 2-3% haematocrit human RBCs collected via patient donation at National University Hospital, Singapore. Cultures were maintained with a special mixed gas of 3% O2, 5% CO2, balanced with N2 (SOXAL, Air Liquide, Singapore). For cultures grown in plate format, plates were kept in a sealed bag filled with mixed gas. Parasitemia and parasite stages were checked by microscopy of blood smears fixed in Methanol (Merck), stained in Giemsa (Sigma-Aldrich) in 1× Tris-Base, Acetic Acid, EDTA (TAE) buffer (analytical grade, Fischer US).
Synchronization of ring stage parasites (0-20 hour IDC) was done by incubating packed RBC culture with 5% (w/v) D-Sorbitol (Sigma-Aldrich) at 37° C. for 20 minutes. Cultures were washed with incomplete RPMI (iRPMI), 2,200 rpm, 3 minutes, brake 1 to remove sorbitol and cell debris. Late stage parasites (30-48 hour IDC) were isolated using a 68% Percoll (MP Biomedicals) gradient prepared with 1× Phosphate Buffer Saline (PBS) and iRPMI. Packed parasite cultures were diluted with iRPMI 1:5, then layer carefully atop of the 68% Percoll gradient in a 15 mL Falcon tube. Tubes were spun at 2,200 rpm for 20 minutes, brake 0. […]
In a mid-throughput compound library screen, compounds were screened for antiparasitic activity by growth rate over a duration of 60 hrs (slightly over one IDC). ˜1% parasitemia of 0-3hpi ring stage culture in 2% haematocrit were treated with 10 μM of library compound (0.1% final DMSO concentration), and seeded into 96well flat bottom plates. […] After 60 hr of treatment (to allow ring stages to develop a more defined morphology), taken for Fluorescent-activated Cell Sorting (FACS) read out.
Assay read out was done by staining with Hoechst 33342 (Excitation 350 nm, Emission 461 nm; Molecular Probes, Life Technologies), a cell permeable DNA staining dye. […] Cells were read via a High Throughput Sampler (HTS)-coupled FACS machine (BD Biosciences) in the UV laser excitation channel (Excitation 355 nm). […]

[2] = system: P. berghei; experiment: in vivo four-day suppression test; set-up: species or system Balb/c mice; conditions: for dose required to achieve >95% killing: once daily Days 1 to 4, parasitemia measured on Day 5
Procedure: Four-week-old Balb/c mice were challenged with […] P. berghei parasites intravenously on Day 0. […] Parasitemia was measured on Day 5, and the following formula was used to measure in vivo activity;

[3] = system: lung, kidney, and liver epithelial cells; experiment: toxicity in epithelial cells; format: cell-based; conditions: at 1000-folds in excess of the therapeutic dose
[4] = system: P. berghei; experiment: in vivo growth suppression test in P. berghei BALB/c mice model; conditions: 30 mg/kg intraperitoneally once daily for four days
Procedure: In a next step, the compound's in vitro activity was validated in vivo in a P. berghei BALB/c mice model. A growth suppression test was done by intraperitoneally infecting 4-week old Balb/c mice with GFP-expressing parasites, and allowing the parasitemia to rise to 3-4%. Subsequently, different doses of the compound were administered intraperitoneally once daily over four days.
Tail snips were done once daily to obtain blood samples for the measurement of parasitemia by FACS.

[5] = molecular target: T1, Falcilysin (FLN, PlasmoDB geneID: PF3D7_1360800) (Plasmodium falciparum, UniProt Q76NL8); experiment: cell-free enzymatic inhibition assay with recombinant FLN and fluorescent-quencher peptide substrate; format: biochemical; conditions: 1 mM, fluorescence at 490 nm over 7 min
T1 construct: gift from Zbynek Bozdech, School of Biological Sciences, NTU
Procedure: In order to validate the results obtained from the CETSA screen, a cell-free enzymatic inhibition assay using recombinant-FLN and a fluorescent-quencher tagged 10-peptide substrate of FLN was employed. Recombinant FLN and the Dabcyl-[…] (SEQ ID NO:3)-Edans fluorescent-quencher peptides were a gift from Zbynek Bozdech of School of Biological Sciences, NTU. Briefly, recombinant FLN at a final concentration of 0.3 μg/ml in assay buffer (50 mM Bis-tris, pH 7.2) was prepared. […] Just prior to the read out, recombinant FLN in assay buffer was added. VO was determined by monitoring fluorescence (Aex=340 nm, Aem=490) over 7 min on a Tecan Infinite M200 Pro plate reader. Assays were done with two technical replicates each. Data of three biological replicates were averaged and plot on Microsoft excel to compare the slope of the fluorescence signal.

T1 sequence (Q76NL8 whole entry): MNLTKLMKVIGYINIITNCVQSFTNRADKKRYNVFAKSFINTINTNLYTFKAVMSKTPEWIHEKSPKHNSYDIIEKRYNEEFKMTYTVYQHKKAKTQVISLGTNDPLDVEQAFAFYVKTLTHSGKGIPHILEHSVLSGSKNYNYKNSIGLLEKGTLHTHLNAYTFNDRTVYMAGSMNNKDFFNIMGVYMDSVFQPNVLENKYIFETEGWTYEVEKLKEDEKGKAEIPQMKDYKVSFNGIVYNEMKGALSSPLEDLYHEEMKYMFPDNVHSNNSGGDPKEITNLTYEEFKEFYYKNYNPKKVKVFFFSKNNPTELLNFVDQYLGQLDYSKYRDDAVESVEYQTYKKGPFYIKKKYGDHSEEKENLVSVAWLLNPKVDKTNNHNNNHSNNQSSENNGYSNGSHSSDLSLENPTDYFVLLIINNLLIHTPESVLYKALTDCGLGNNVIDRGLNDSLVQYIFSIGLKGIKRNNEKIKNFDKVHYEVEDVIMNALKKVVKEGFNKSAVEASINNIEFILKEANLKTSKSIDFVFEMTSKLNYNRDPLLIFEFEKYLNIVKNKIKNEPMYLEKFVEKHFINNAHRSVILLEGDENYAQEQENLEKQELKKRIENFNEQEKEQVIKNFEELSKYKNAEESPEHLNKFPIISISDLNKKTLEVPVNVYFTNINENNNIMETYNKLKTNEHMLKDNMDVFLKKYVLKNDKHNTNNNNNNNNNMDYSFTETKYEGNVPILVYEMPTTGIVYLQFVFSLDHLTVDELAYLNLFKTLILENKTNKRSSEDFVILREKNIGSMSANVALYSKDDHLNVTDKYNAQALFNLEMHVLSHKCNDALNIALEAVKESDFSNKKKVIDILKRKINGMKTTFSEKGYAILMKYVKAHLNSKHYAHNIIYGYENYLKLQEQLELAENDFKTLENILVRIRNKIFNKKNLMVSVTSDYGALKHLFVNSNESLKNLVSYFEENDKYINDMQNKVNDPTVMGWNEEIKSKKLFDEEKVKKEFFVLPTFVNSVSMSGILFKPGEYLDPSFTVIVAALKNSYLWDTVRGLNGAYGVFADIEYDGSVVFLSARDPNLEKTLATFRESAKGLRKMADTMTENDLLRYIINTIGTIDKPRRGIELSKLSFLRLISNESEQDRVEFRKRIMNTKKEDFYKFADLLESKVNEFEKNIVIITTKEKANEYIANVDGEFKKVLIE

## 1-({3-[(4,5-Diphenyl-1-imidazolinyl)methyl]-5-methoxyphenyl}methyl)-4,5-diphenylimidazoline [SAR 13]
[1]
  in vitro potency compared with A1: more potent
[2]; 20 mg/kg
  in vivo activity in 4-day suppressive test: highest activity
[2]
  dose required to achieve >95% killing: 20 mg/kg

## 1-({6-[(4,5-Diphenyl-1-imidazolinyl)methyl]-2-pyridyl}methyl)-4,5-diphenylimidazoline [SAR 14]
[1]
  in vitro potency compared with A1: more potent
[2]
  dose required to achieve >95% killing: 30 mg/kg

## C1=NC(c2ccccc2)C(c2ccccc2)N1Cc1cccc(CN2C=NC(c3ccccc3)C2c2ccccc2)c1 (centres unmarked) [A1, 1-({m-[(4,5-Diphenyl-1-imidazolinyl)methyl]phenyl}methyl)-4,5-diphenylimidazoline]
[1]; Plasmodium falciparum
  IC50: 120 nM
[2]
  dose required to achieve >95% killing: 30 mg/kg
[3]
  toxicity: Toxicity was not observed

## C[C@@H]1CC[C@H]2[C@@H](C)C(=O)O[C@@H]3O[C@@]4(C)CC[C@@H]1[C@]32OO4 [artemisinin]
[4]
  reduction of parasitemia: unable to further reduce parasitemia beyond day 3

## C[C@@H]1C[C@@H]([C@H](O)CC2CC(=O)NC(=O)C2)C(=O)[C@@H](C)C1 [cyclohexamine]
[5]
  proteolytic activity of FLN: No inhibition of proteolytic activity

## C1=N[C@@H](c2ccccc2)[C@H](c2ccccc2)N1Cc1cccc(CN2C=N[C@@H](c3ccccc3)[C@@H]2c2ccccc2)c1 [imidazole variant, (4S,5S)-1-[(m-{[(4S,5S)-4,5-Diphenyl-1-imidazolyl]methyl}phenyl)methyl]-4,5-diphenylimidazole]
[1]
  IC50: 4690 nM
